Data on eight compounds can be found in patent US20250115598A1 (Anaxis Pharma Pty Ltd, priority 2021, published 2025).

Where two headings read alike, the source gives them in different places. A value given as a limit tells only on which side of the number the result lay.

One assay deals with U937 cells. The assay can be described thus: Counter screen: cell viability without the TSQ cocktail (off-target effect). Further details: species or system human. The method, then:
(§1) • Cell Line ID: U937 human histiocytic leukemia cell line. • Cell Concentration (cells/well): Final cell density is 20000 cells per well. • Cell growth medium: HT-RPMI medium+7.4% Fetal Bovine Serum (FBS). Cells are cultured in Corning 150 cm^2 tissue culture flasks with vented caps at 37° C./5% CO2. • Incubation: Plates were incubated at 37° C./5% CO2 in a humidified incubator for 48 hours following addition of compounds and death stimuli (TSQ cocktail). • Compound concentration: 36 μM starting concentration, 1:3 dilution, 10 point • DMSO final concentration (% v/v): 0.3%. Compounds in TSQ Cocktail (T: TNF; S: Smac Mimetic; Q: Q-VD-OPh) and their Final Concentrations: • hTNF-Fc (100 ng/ml)—produced by standard procedures as shown in Bossen et al., J. Biol. Chem., 2006, 281(20), 13964-13971. • Compound A (500 nM)—Smac mimetic, Tetralogic and SYNthesis med chem • Q-VD-OPh (10 μM)—MP Biomedicals
(§2) The cellular assay was carried out according to the following steps: • 1. Each well was prepared by sequential addition of: • a. DMSO (control; columns 1-2 and 23-24) or compound in DMSO—addition was performed using acoustic transfer of nL volumes of stock compound to give final test concentrations of 36, 12, 4, 1.3, 0.44, 0.148, 0.049, 0.016, 0.005 and 0.002 μM. All wells were backfilled with DMSO to a final total volume in the well of 100 nL. • b. Following compound/DMSO addition in step (a), 40 μL of cell suspension (5×10^5 cells/mL) was added to provide a final cell concentration of 20,000 cells per well, and • c. Following cell addition in step (b), 10 μL of 5×TSQ cocktail (except to positive controls; columns 1 and 23) was added to each well. • 2. After 48 hours, plate was removed from the 37° C. incubator and equilibrated to room temperature for 45 minutes. • 3.15 μL of room temperature CellTitre-Glo2™ (Promega™) was added to each well. • 4. Shook plates for 2 minutes (˜600 rpm) and incubated at room temperature for 15 minutes to allow signal to stabilise. • 5. Read luminescence readout on a plate reader.
(§3) • Assay involving the TSQ cocktail (T: TNF; S: Smac mimetic; Q: Q-VD-OPh): TSQ treatment ensures that cells specifically undergo necroptotic cell death. TNF activates the TNF receptor, Smac mimetic directs the signal away from proinflammatory signaling and toward the RIPK1/RIPK3-mediated cell death pathways, and Q-VD-OPh ensures that the apoptotic response is blocked leaving only the programmed necrosis response. The compounds' activity (solution in DMSO) tested in this TSQ-induced assay was evaluated by determining the number of viable cells in culture by measuring the amount of ATP present as measured by CelltiterGlo. • Counter screen: In parallel, all compounds were tested for their ability to affect cell viability. The same U937 cells were treated with compound in DMSO without the TSQ cocktail. This counter screen enabled evaluation of off-target effects. In this case, cell viability was measured by CelltiterGlo.

In another assay the target is human RIPK1 (Homo sapiens (Human), UniProt Q13546). Put plainly: KINOMEscan binding assay, human RIPK1. As to conditions: Table 21. The method in brief:
(§4)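 KINOMEscan competition binding using kinase-tagged T7 phage or HEK-293-produced DNA-tagged protein captured on ligand beads, with eluted protein quantified by qPCR. Compounds were run as an 11-point 3-fold series, top 30,000 nM, in 1% DMSO. Kd was fitted with the Hill equation, slope fixed at −1.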

Another assay concerns the target human RIPK3 (Homo sapiens (Human), UniProt Q9Y572). Put plainly: KINOMEscan binding assay, human RIPK3. The conditions noted are these: Table 21. The method in brief: as §4
In assay [1] the test system is U937 human histiocytic leukemia cell line. Put plainly: Cellular assay: inhibition of TSQ induced necroptosis, CellTitre-Glo viability. As to conditions: U937 cells, 48 hours, TSQ cocktail, read-out: Inhibition of TSQ-induced necroptosis (IC50 cell-based assay). The method, then:
Cellular Assay: Screening Compounds for Inhibition of TSQ Induced Necroptosis, 384 Well Plate Format.
as §1, §2
Percent viability was calculated for each compound according to equation (2):
as §3

The test system of assay [2] is Immortalised Mouse Dermal Fibroblasts (MDFs). The assay can be described thus: Cellular assay: inhibition of TSI induced necroptosis, CellTitre-Glo viability. As to conditions: Mus musculus, Fibroblast, MDF, 3 hours TSI cocktail, read-out: Inhibition of TSI-induced necroptosis (IC50 cell-based assay) in MDF. The method in brief:
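Necroptosis induced for 3 h with TSI: rhTNF 100 ng/ml, Smac mimetic 500 nM, caspase inhibitor IDN-6556 10 μM. Mouse dermal fibroblasts had received compound (36 μM top, ten three-fold steps) 30 min beforehand. ATP-based viability scaled between untreated and TSI-only wells; IC50 taken as 4-parameter curve inflection.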

For another assay, the target named is human MLKL (full length) (Homo sapiens (Human), UniProt Q8NB16). Put plainly: KINOMEscan binding assay, human MLKL (full length). The conditions noted are these: KINOMEscan, Table 21; read-out: Human MLKL (full-length) (KD). Put shortly: as §4
Another assay has as its target endogenous MLKL in U937 (Homo sapiens (Human), UniProt Q8NB16). The assay can be described thus: Degradation assay: endogenous MLKL in U937 (western blot). The conditions noted are these: U937, 24 h incubation, read-out: Degradation of endogenous MLKL in U937 (DC50 cell-based assay). The method in brief:
(§5)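 Western blot band intensity of MLKL, adjusted to GAPDH loading and normalized to DMSO-only wells, gave percent degradation. Compound exposure lasted 24 h at final concentrations of 10–0.016 μM in 1:5 steps, in mouse dermal fibroblasts or human U937 cells.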
A general note: A western blot detects proteins with antibodies after separation by electrophoresis.

A further assay deals with endogenous MLKL in MDF (Mus musculus (Mouse), UniProt Q9D2Y4). Put plainly: Degradation assay: endogenous MLKL in MDF (western blot). As to conditions: MDF cells, 24 h incubation with compound, MLKL adjusted for loading with GAPDH, normalized to DMSO only control, read-out: Degradation of endogenous MLKL in MDF (DC50 cell-based assay). Put shortly:
as §5

Where [3] appears, read: Homo sapiens, U-937, Table 23, read-out: Off-target effect (IC50 cell-based assay).
[4] abbreviates: Table 23, read-out: Off-target effect (IC50 cell-based assay).
[5] abbreviates: Homo sapiens, U-937, Table 26, read-out: Off-target effect (IC50 cell-based assay).

Chain of human RIPK1 (Q13546 whole entry): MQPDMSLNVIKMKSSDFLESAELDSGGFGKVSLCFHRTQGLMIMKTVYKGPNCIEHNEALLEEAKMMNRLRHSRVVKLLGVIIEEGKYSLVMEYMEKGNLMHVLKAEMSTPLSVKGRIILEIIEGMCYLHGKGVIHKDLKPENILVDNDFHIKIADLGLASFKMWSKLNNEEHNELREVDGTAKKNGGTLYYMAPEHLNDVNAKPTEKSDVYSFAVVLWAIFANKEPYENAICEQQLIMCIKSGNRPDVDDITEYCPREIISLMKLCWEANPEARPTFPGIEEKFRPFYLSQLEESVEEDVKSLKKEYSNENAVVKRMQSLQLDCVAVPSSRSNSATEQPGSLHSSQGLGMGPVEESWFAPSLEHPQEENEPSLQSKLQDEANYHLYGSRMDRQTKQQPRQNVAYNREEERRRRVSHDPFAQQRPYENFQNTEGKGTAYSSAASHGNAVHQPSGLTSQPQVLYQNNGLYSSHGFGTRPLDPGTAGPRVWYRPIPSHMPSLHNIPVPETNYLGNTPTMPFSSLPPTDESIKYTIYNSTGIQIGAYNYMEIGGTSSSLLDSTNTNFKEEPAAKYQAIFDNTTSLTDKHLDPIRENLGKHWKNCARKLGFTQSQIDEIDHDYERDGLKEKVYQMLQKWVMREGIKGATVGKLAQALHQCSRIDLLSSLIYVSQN
Chain of human MLKL (full length) (Q8NB16 whole entry): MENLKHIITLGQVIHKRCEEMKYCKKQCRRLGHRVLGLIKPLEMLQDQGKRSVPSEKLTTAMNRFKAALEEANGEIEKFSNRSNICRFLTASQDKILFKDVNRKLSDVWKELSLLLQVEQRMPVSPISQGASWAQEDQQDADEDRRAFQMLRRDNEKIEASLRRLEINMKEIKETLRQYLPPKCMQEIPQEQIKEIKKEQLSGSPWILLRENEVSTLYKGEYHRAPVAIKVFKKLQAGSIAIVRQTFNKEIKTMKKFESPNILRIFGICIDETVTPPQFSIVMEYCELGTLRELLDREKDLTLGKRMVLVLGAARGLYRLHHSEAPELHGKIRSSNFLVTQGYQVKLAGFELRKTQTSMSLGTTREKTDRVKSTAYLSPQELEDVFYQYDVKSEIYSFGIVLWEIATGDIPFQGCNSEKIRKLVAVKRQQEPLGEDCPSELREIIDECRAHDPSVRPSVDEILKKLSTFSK
Chain of human RIPK3 (Q9Y572 whole entry): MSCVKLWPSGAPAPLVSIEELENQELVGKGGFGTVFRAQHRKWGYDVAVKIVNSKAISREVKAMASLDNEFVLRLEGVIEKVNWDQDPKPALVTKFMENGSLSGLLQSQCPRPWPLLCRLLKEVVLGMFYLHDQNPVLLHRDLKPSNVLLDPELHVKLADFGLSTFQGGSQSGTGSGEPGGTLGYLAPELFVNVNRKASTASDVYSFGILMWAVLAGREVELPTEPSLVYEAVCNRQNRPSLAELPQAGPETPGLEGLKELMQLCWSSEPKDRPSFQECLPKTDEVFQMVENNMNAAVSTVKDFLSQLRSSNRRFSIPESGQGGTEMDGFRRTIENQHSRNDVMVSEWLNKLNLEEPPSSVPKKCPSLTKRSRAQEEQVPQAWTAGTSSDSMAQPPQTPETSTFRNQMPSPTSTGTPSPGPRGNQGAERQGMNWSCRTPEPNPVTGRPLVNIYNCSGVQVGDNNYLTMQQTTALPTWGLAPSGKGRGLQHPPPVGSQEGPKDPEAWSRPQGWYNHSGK
Chain of endogenous MLKL in U937 (Q8NB16 whole entry): as the sequence (Q8NB16 whole entry) above
Chain of endogenous MLKL in MDF (Q9D2Y4 whole entry): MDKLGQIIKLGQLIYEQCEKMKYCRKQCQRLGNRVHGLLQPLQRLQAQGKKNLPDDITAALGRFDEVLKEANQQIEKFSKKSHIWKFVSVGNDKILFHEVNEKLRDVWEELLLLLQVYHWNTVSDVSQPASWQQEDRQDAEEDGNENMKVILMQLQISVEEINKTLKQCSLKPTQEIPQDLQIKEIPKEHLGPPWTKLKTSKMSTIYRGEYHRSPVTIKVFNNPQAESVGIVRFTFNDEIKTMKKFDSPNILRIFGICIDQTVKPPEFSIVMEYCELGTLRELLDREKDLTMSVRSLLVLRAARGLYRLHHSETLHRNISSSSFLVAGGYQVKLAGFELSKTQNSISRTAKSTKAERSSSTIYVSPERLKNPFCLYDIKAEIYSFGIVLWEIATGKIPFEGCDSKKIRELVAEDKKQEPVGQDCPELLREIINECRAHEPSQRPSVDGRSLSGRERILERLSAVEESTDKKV

Usually IC50 stands for the midpoint of a concentration-inhibition curve. For orientation: Kd means a measure of binding affinity in units of concentration. Turning to `C[C@H](Oc1cc(-c2nn(C)c3c(-c4cnn([C@@H]5CCN(C)C(C)(C)C5)c4)cnc(N)c23)ccc1NS(=O)(=O)C(F)F)c1ccc(F)cc1` (single isomer, unassigned) [Compound 154, N-(4-(4-amino-1-methyl-7-(1-((R*)-1,2,2-trimethylpiperidin-4-yl)-1H-pyrazol-4-yl)-1H-pyrazolo[4,3-c]pyridin-3-yl)-2-((S)-1-(4-fluorophenyl)ethoxy)phenyl)-1,1-difluoromethanesulfonamide], the IC50 was above 10 µM in the assay on U937 cells (setting [3]) and below 0.01 µM in assay [1] (Homo sapiens, U-937, Table 23). Also, the Kd on human RIPK1 and at human RIPK3 was above 10 µM in each case.

For `C[C@H](Oc1cc(-c2nn(C)c3c(-c4cnn(C5CCN(C)C(C)(C)C5)c4)cnc(N)c23)ccc1NS(=O)(=O)C(F)F)c1ccc(F)cc1` (single isomer, unassigned) [Compound 155, N-(4-(4-amino-1-methyl-7-(1-((S*)-1,2,2-trimethylpiperidin-4-yl)-1H-pyrazol-4-yl)-1H-pyrazolo[4,3-c]pyridin-3-yl)-2-((S)-1-(4-fluorophenyl)ethoxy)phenyl)-1,1-difluoromethanesulfonamide], the IC50 was below 1 µM in assay [2] (Table 24); above 10 µM in the assay on U937 cells (setting [3]); below 0.01 µM in assay [1] (Homo sapiens, U-937, Table 23).

On to `CCS(=O)(=O)Nc1ccc(-c2nn(C)c3c(-c4ccncc4)cnc(N)c23)cc1OCc1ccc(F)cc1` [Compound 1, N-(4-(4-amino-1-methyl-7-(pyridin-4-yl)-1H-pyrazolo[4,3-c]pyridin-3-yl)-2-((4-fluorobenzyl)oxy)phe-nyl)ethanesulfonamide], for which the IC50 in the assay on U937 cells (setting [3]) is above 10 µM; in assay [1] (Homo sapiens, U-937, Table 23), 1 to 10 µM. In addition, the Kd on human RIPK1 is above 10 µM; at human RIPK3, above 10 µM; on human MLKL (full length), 0.001 to 0.1 µM.

Consider `C[C@H](Oc1cc(-c2nn(C)c3c(-c4ccc(N5CCNCC5)nc4)cnc(N)c23)ccc1NS(=O)(=O)C(F)F)c1ccc(F)cc1` [Compound 108], for which the IC50 with U937 cells (setting [4]) was above 10 µM; in assay [1] (Table 23), 0.01 to 1 µM. Moreover, the Kd was above 10 µM at human RIPK1, above 10 µM on human RIPK3 and below 0.001 µM on human MLKL (full length).

In the case of `CNc1ncc(-n2cc(-c3cnc(N)c4c(-c5ccc(NS(=O)(=O)C(F)F)c(O[C@@H](C)c6ccc(F)cc6)c5)nn(C)c34)cn2)cn1` [Compound 138, (S)-N-(4-(4-amino-1-methyl-7-(1-(2-(methylamino)pyrimidin-5-yl)-1H-pyrazol-4-yl)-1H-pyrazolo[4,3-c]pyridin-3-yl)-2-(1-(4-fluorophenyl)ethoxy)phenyl)-1,1-difluoromethanesulfonamide], the IC50 in the assay on U937 cells (setting [4]) was above 10 µM; in assay [1] (Table 23), 0.01 to 1 µM. Further, the Kd was above 10 µM at human RIPK1, above 10 µM on human RIPK3 and 0.001 to 0.1 µM on human MLKL (full length).

The term DC50 denotes the concentration giving 50% degradation. Consider `Cc1ncsc1-c1ccc(CNC(=O)[C@@H]2C[C@@H](O)CN2C(=O)[C@@H](NC(=O)CN2CCC(n3cc(-c4cnc(N)c5c(-c6ccc(NS(=O)(=O)C(F)F)c(O[C@@H](C)c7ccc(F)cc7)c6)nn(C)c45)cn3)C2)C(C)(C)C)cc1` (stereo partly drawn) [Compound 1011, (2S,4R)-1-[(2S)-2-{2-[3-(4-{4-amino-3-[4-(difluoromethanesulfonamido)-3-[(1S)-1-(4-fluorophenyl)ethoxy]phenyl]-1-methyl-1H-pyrazolo[4,3-c]pyridin-7-yl}-1H-pyrazol-1-yl)pyrrolidin-1-yl]acetamido}-3,3-dimethylbutanoyl]-4-hydroxy-N-{[4-(4-methyl-1,3-thiazol-5-yl)phenyl]methyl}pyrrolidine-2-carboxamide], for which the IC50 in the assay with U937 cells (setting [5]) is above 10 µM; in assay [1] (Homo sapiens, U-937, Table 26) it was 1 to 10 µM. The DC50 at endogenous MLKL in U937 was in the range of 1 to 10 µM.

As to `Cc1ncsc1-c1ccc(CNC(=O)[C@@H]2C[C@@H](O)CN2C(=O)[C@@H](NC(=O)CN2CCC(n3cc(-c4cnc(N)c5c(-c6ccc(NS(=O)(=O)C(F)F)c(O[C@@H](C)c7ccc(F)cc7)c6)nn(C)c45)cn3)CC2)C(C)(C)C)cc1` [Compound 1016, (2S,4R)-1-[(2S)-2-{2-[4-(4-{4-amino-3-[4-(difluoromethanesulfonamido)-3-[(1S)-1-(4-fluorophenyl)ethoxy]phenyl]-1-methyl-1H-pyrazolo[4,3-c]pyridin-7-yl}-1H-pyrazol-1-yl)piperidin-1-yl]acetamido}-3,3-dimethylbutanoyl]-4-hydroxy-N-{[4-(4-methyl-1,3-thiazol-5-yl)phenyl]methyl}pyrrolidine-2-carboxamide], the IC50 was below 1 µM in assay [2] (Table 27); above 10 µM in the assay on U937 cells (setting [5]); below 1 µM in assay [1] (Homo sapiens, U-937, Table 26).

For the compound `Cc1ncsc1-c1ccc(CNC(=O)[C@@H]2C[C@@H](O)CN2C(=O)[C@@H](NC(=O)CN2CCC(C#Cc3cnc(N)c4c(-c5ccc(NS(=O)(=O)C(F)F)c(O[C@@H](C)c6ccc(F)cc6)c5)nn(C)c34)CC2)C(C)(C)C)cc1` [Compound 1023, (2S,4R)-1-[(2S)-2-{2-[4-(2-{4-amino-3-[4-(difluoromethanesulfonamido)-3-[(1S)-1-(4-fluorophenyl)ethoxy]phenyl]-1-methyl-1H-pyrazolo[4,3-c]pyridin-7-yl}ethynyl)piperidin-1-yl]acetamido}-3,3-dimethylbutanoyl]-4-hydroxy-N-{[4-(4-methyl-1,3-thiazol-5-yl)phenyl]methyl} pyrrolidine-2-carboxamide], the IC50 is above 10 µM in the assay on U937 cells (setting [5]) and below 1 µM in assay [1] (Homo sapiens, U-937, Table 26). Further, the DC50 at endogenous MLKL in MDF was in the range of 1 to 10 µM.
